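Protocol summary: plate cells (96-well), add compound at 5 concentrations, incubate 48 h, interpolate endpoints linearly. GI50 marks 50% less growth. The concentration for full growth arrest is given as TGI.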
Legend:
Assay in all cases: DTP human tumour cell line panel, 48 h
A549 NSCLC = tested on: A549 NSCLC
MDA-MB-435 = tested on: MDA-MB-435
RXF 393 renal = tested on: RXF 393 renal
UACC-257 melanoma = tested on: UACC-257 melanoma
786-0 renal = tested on: 786-0 renal
MCF7 breast = tested on: MCF7 breast
EKVX NSCLC = tested on: EKVX NSCLC
HCC-2998 colon = tested on: HCC-2998 colon
NCI-H23 lung = tested on: NCI-H23 lung
SNB-19 CNS = tested on: SNB-19 CNS
SW-620 colon = tested on: SW-620 colon
LOX IMVI melanoma = tested on: LOX IMVI melanoma
NCI/ADR-RES ovarian = tested on: NCI/ADR-RES ovarian
HCT-116 colon = tested on: HCT-116 colon
HT29 colon = tested on: HT29 colon
KM12 colon = tested on: KM12 colon
PC-3 prostate = tested on: PC-3 prostate
SK-MEL-28 melanoma = tested on: SK-MEL-28 melanoma
U251 CNS = tested on: U251 CNS
TK-10 renal = tested on: TK-10 renal
SK-MEL-2 melanoma = tested on: SK-MEL-2 melanoma
A498 renal = tested on: A498 renal
T-47D breast = tested on: T-47D breast
HL-60(TB) leukemia = tested on: HL-60(TB) leukemia
HS 578T breast = tested on: HS 578T breast
DU-145 prostate = tested on: DU-145 prostate
MALME-3M melanoma = tested on: MALME-3M melanoma
MDA-MB-231 breast = tested on: MDA-MB-231 breast
HOP-92 NSCLC = tested on: HOP-92 NSCLC
SN12C renal = tested on: SN12C renal
OVCAR-8 ovarian = tested on: OVCAR-8 ovarian
OVCAR-4 ovarian = tested on: OVCAR-4 ovarian
MOLT-4 leukemia = tested on: MOLT-4 leukemia
SK-OV-3 ovarian = tested on: SK-OV-3 ovarian
COLO 205 colon = tested on: COLO 205 colon
SNB-75 CNS = tested on: SNB-75 CNS
HCT-15 colon = tested on: HCT-15 colon
UO-31 renal = tested on: UO-31 renal
M14 melanoma = tested on: M14 melanoma
SK-MEL-5 melanoma = tested on: SK-MEL-5 melanoma
SR leukemia = tested on: SR leukemia
ACHN renal = tested on: ACHN renal
CCRF-CEM leukemia = tested on: CCRF-CEM leukemia
UACC-62 melanoma = tested on: UACC-62 melanoma
OVCAR-3 ovarian = tested on: OVCAR-3 ovarian
IGROV1 ovarian = tested on: IGROV1 ovarian
BT-549 breast = tested on: BT-549 breast
SF-295 CNS = tested on: SF-295 CNS
SF-268 CNS = tested on: SF-268 CNS
K-562 leukemia = tested on: K-562 leukemia
SF-539 CNS = tested on: SF-539 CNS
NCI-H226 lung = tested on: NCI-H226 lung
RPMI-8226 leukemia = tested on: RPMI-8226 leukemia
CAKI-1 renal = tested on: CAKI-1 renal
OVCAR-5 ovarian = tested on: OVCAR-5 ovarian
HOP-62 NSCLC = tested on: HOP-62 NSCLC
NCI-H460 lung = tested on: NCI-H460 lung
NCI-H522 lung = tested on: NCI-H522 lung

Cc1c(Cl)cccc1Nc1ncccc1C(=O)O
GI50 (A549 NSCLC): > 100 µM | TGI (A549 NSCLC): > 100 µM | GI50 (MDA-MB-435): 82.9 µM | TGI (MDA-MB-435): > 100 µM | GI50 (RXF 393 renal): > 100 µM | TGI (RXF 393 renal): > 100 µM | GI50 (UACC-257 melanoma): > 100 µM | TGI (UACC-257 melanoma): > 100 µM | GI50 (786-0 renal): 70.4 µM | TGI (786-0 renal): > 100 µM | GI50 (MCF7 breast): > 100 µM | TGI (MCF7 breast): > 100 µM | GI50 (EKVX NSCLC): 34.1 µM | TGI (EKVX NSCLC): > 100 µM | GI50 (HCC-2998 colon): 63.3 µM | TGI (HCC-2998 colon): > 100 µM | GI50 (NCI-H23 lung): 58.3 µM | TGI (NCI-H23 lung): > 100 µM | GI50 (SNB-19 CNS): > 100 µM | TGI (SNB-19 CNS): > 100 µM | GI50 (SW-620 colon): > 100 µM | TGI (SW-620 colon): > 100 µM | GI50 (LOX IMVI melanoma): 54.9 µM | TGI (LOX IMVI melanoma): > 100 µM | GI50 (NCI/ADR-RES ovarian): 78.7 µM | TGI (NCI/ADR-RES ovarian): > 100 µM | GI50 (HCT-116 colon): 46.8 µM | TGI (HCT-116 colon): > 100 µM | GI50 (HT29 colon): > 100 µM | TGI (HT29 colon): > 100 µM | GI50 (KM12 colon): > 100 µM | TGI (KM12 colon): > 100 µM | GI50 (PC-3 prostate): 52.3 µM | TGI (PC-3 prostate): > 100 µM | GI50 (SK-MEL-28 melanoma): > 100 µM | TGI (SK-MEL-28 melanoma): > 100 µM | GI50 (U251 CNS): 63.4 µM | TGI (U251 CNS): > 100 µM | GI50 (TK-10 renal): > 100 µM | TGI (TK-10 renal): > 100 µM | GI50 (SK-MEL-2 melanoma): > 100 µM | TGI (SK-MEL-2 melanoma): > 100 µM | GI50 (A498 renal): 34.3 µM | TGI (A498 renal): > 100 µM | GI50 (T-47D breast): 68 µM | TGI (T-47D breast): > 100 µM | GI50 (HL-60(TB) leukemia): > 100 µM | TGI (HL-60(TB) leukemia): > 100 µM | GI50 (HS 578T breast): 63.1 µM | TGI (HS 578T breast): > 100 µM | GI50 (DU-145 prostate): > 100 µM | TGI (DU-145 prostate): > 100 µM | GI50 (MALME-3M melanoma): 73.4 µM | TGI (MALME-3M melanoma): > 100 µM | GI50 (MDA-MB-231 breast): 92.3 µM | TGI (MDA-MB-231 breast): > 100 µM | GI50 (HOP-92 NSCLC): 41.6 µM | TGI (HOP-92 NSCLC): > 100 µM | GI50 (SN12C renal): > 100 µM | TGI (SN12C renal): > 100 µM | GI50 (OVCAR-8 ovarian): > 100 µM | TGI (OVCAR-8 ovarian): > 100 µM | GI50 (OVCAR-4 ovarian): 90.6 µM | TGI (OVCAR-4 ovarian): > 100 µM | GI50 (MOLT-4 leukemia): > 100 µM | TGI (MOLT-4 leukemia): > 100 µM | GI50 (SK-OV-3 ovarian): > 100 µM | TGI (SK-OV-3 ovarian): > 100 µM | GI50 (COLO 205 colon): 93.7 µM | TGI (COLO 205 colon): > 100 µM | GI50 (SNB-75 CNS): > 100 µM | TGI (SNB-75 CNS): > 100 µM | GI50 (HCT-15 colon): 38.1 µM | TGI (HCT-15 colon): > 100 µM | GI50 (UO-31 renal): 55.7 µM | TGI (UO-31 renal): > 100 µM | GI50 (M14 melanoma): > 100 µM | TGI (M14 melanoma): > 100 µM | GI50 (SK-MEL-5 melanoma): 52.7 µM | TGI (SK-MEL-5 melanoma): > 100 µM | GI50 (SR leukemia): > 100 µM | TGI (SR leukemia): > 100 µM | GI50 (ACHN renal): 58.5 µM | TGI (ACHN renal): > 100 µM | GI50 (CCRF-CEM leukemia): 64.2 µM | TGI (CCRF-CEM leukemia): > 100 µM | GI50 (UACC-62 melanoma): 48.3 µM | TGI (UACC-62 melanoma): > 100 µM | GI50 (OVCAR-3 ovarian): 39.8 µM | TGI (OVCAR-3 ovarian): > 100 µM | GI50 (IGROV1 ovarian): > 100 µM | TGI (IGROV1 ovarian): > 100 µM | GI50 (BT-549 breast): 61.2 µM | TGI (BT-549 breast): > 100 µM | GI50 (SF-295 CNS): 16.7 µM | TGI (SF-295 CNS): 76.7 µM | GI50 (SF-268 CNS): > 100 µM | TGI (SF-268 CNS): > 100 µM | GI50 (K-562 leukemia): 62.7 µM | TGI (K-562 leukemia): > 100 µM | GI50 (SF-539 CNS): 77.2 µM | TGI (SF-539 CNS): > 100 µM | GI50 (NCI-H226 lung): > 100 µM | TGI (NCI-H226 lung): > 100 µM | GI50 (RPMI-8226 leukemia): 47.7 µM | TGI (RPMI-8226 leukemia): > 100 µM | GI50 (CAKI-1 renal): 59 µM | TGI (CAKI-1 renal): > 100 µM | GI50 (OVCAR-5 ovarian): > 100 µM | TGI (OVCAR-5 ovarian): > 100 µM | GI50 (HOP-62 NSCLC): > 100 µM | TGI (HOP-62 NSCLC): > 100 µM | GI50 (NCI-H460 lung): 53 µM | TGI (NCI-H460 lung): > 100 µM | GI50 (NCI-H522 lung): 81.2 µM | TGI (NCI-H522 lung): > 100 µM

Source: PubChem BioAssay (NCI)
